Experimental data: patent US6750228B1, “Aromatic sulfone hydroxamic acid metalloprotease inhibitor” (priority 1997, dated 2004)
Where two headings read alike, the source gives them in different places.

Experiments:
Test in all cases: biochemical
MMP-1 = target: T1, MMP-1 (Homo sapiens, UniProt P03956); conditions: read-out: MMP-1 IC50
T1 construct: made in house; host or cells: transfected HT-1080 cells (provided by Dr. Harold Welgus, Washington University)
T1 sequence (P03956 100-469): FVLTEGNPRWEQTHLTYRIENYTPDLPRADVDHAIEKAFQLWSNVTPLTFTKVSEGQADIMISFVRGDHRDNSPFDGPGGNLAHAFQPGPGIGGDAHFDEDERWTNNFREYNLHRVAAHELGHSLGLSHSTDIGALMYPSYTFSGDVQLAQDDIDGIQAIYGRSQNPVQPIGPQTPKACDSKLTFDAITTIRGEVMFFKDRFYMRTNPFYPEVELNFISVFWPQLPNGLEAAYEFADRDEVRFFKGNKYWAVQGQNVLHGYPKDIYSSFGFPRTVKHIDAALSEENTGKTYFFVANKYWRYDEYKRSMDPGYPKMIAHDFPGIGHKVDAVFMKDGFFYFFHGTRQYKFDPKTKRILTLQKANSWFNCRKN
Procedure: (§1) The compounds prepared in the manner described in the Examples above were assayed for activity by an in vitro assay. […] Briefly, 4-aminophenylmercuric acetate (APMA) or trypsin-activated MMPs were incubated with various concentrations of the inhibitor compound at room temperature for 5 minutes.
(§2) The expressed enzyme was purified first over a heparin agarose column and then over a chelating zinc chloride column. The proenzyme was activated by APMA for use in the assay.
(§3) MMP-1 expressed in transfected HT-1080 cells was provided by Dr. Harold Welgus of Washington University, St. Louis, Mo. The enzyme was also activated using APMA and was then purified over a hydroxamic acid column. Dr. Welgus also provided transfected HT-1080 cells that expressed MMP-9. Transfected cells that expressed MMP-2 were provided by Dr. Gregory Goldberg, also of Washington University. Studies with MMP-7 were carried out at pH 7.5 in the presence of 0.02% 2-mercaptoethanol using conditions otherwise similar to those used for the other enzymes. The enzyme was obtaind from a hMMP-7-expressing E. coli clone that was a gift of Dr. Steven Shapiro of Washington University, St. Louis, Mo. Further specifics for preparation and use of these enzymes can be found in the scientific literature describing these enzymes. See, for example, Enzyme Nomenclature, Academic Press, San Diego, Calif. […] The enzyme substrate is a methoxycoumarin-containing polypeptide having the following sequence:
(§4) MCA-ProLeuGlyLeuDpaAlaArgNH2, wherein MCA is methoxycoumarin and Dpa is 3-(2,4-dinitrophenyl)-L-2,3-diaminopropionyl alanine.
(§5) The buffer used for assays contained 100 mM Tris-HCl, 100 mM NaCl, 10 mM CaCl2 and 0.05 percent polyethyleneglycol (23) lauryl ether at a pH value of 7.5. Assays were carried out at room temperature, and dimethyl sulfoxide (DMSO) at a final concentration of 1 percent was used to dissolve inhibitor compound.
(§6) The assayed inhibitor compound in DMSO/buffer solution was compared to an equal amount of DMSO/buffer with no inhibitor as control using Microfluor White Plates (Dynatech). The inhibitor or control solution was maintained in the plate for 10 minutes and the substrate was added to provide a final concentration of 4 μM.
(§7) Inhibition was measured as a reduction in fluorescent intensity as a function of inhibitor concentration, using a Perkin Elmer L550 plate reader. The IC50 values were calculated from those values. The results are set forth in the Inhibition Table A, below, reported in terms of IC50 to three significant figures, where appropriate.

MMP-13 = target: T2, MMP-13 (Homo sapiens, UniProt P45452); conditions: read-out: MMP-13 IC50
T2 construct: made in house; host or cells: baculovirus / insect cells
Procedure: as §1, §2, §3, §4, §5, §6, §7

MMP-2 = target: T3, MMP-2 (Homo sapiens, UniProt P08253); conditions: read-out: MMP-2 IC50
T3 construct: made in house; provided by Dr. Gregory Goldberg, Washington University
T3 sequence (P08253 110-660): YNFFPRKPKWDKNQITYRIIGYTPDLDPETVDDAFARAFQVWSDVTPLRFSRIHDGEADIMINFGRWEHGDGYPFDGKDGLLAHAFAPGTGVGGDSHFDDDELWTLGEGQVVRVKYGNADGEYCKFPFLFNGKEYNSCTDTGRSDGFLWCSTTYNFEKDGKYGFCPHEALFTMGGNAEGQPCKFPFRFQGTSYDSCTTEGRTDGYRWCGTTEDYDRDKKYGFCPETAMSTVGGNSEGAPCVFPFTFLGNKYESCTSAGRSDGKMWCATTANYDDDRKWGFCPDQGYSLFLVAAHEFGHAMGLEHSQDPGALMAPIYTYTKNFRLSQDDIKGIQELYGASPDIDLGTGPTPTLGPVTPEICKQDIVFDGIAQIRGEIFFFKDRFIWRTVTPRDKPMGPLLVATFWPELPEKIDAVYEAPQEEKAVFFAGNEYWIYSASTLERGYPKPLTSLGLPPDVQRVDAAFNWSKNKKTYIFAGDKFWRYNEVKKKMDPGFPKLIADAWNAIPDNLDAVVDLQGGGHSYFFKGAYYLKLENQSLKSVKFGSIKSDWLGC
Procedure: as §1, §2, §3, §4, §5, §6, §7

[1] = recombinant human MMP-1, MCA peptide substrate 4 μM, pH 7.5, room temperature
[2] = recombinant human MMP-13, MCA peptide substrate 4 μM, pH 7.5, room temperature
[3] = recombinant human MMP-2, MCA peptide substrate 4 μM, pH 7.5, room temperature

Structure (SMILES)	IC50 (MMP-1; [1])	IC50 (MMP-13; [2])	IC50 (MMP-2; [3])	IC50 (MMP-1)	IC50 (MMP-13)	IC50 (MMP-2)
O=C(NO)C1(S(=O)(=O)c2ccc(N3CCC(c4ccccc4C(F)(F)F)CC3)cc2)CCOCC1 [Example 207]	> 10 µM	0.0288 µM	0.9 µM	–	–	–
COc1ccccc1NC(=O)N1CCC(C(=O)NO)(S(=O)(=O)c2ccc(Oc3ccc(OC(F)(F)F)cc3)cc2)CC1 [Example 357]	> 10 µM	0.0003 µM	0.0001 µM	–	–	–
CC1CC(C)CN(C(=O)C2CCN(c3ccc(S(=O)(=O)C4(C(=O)NO)CCN(C(=O)CNCCOCCO)CC4)cc3)CC2)C1 (stereo not drawn) [Example 301]	> 10 µM	0.09 µM	> 10 µM	–	–	–
CC1CC(C)CN(C(=O)C2CCN(c3ccc(S(=O)(=O)C4(C(=O)NO)CCN(C(=O)CN5CCC(C(=O)O)CC5)CC4)cc3)CC2)C1 (stereo not drawn) [Example 315]	> 10 µM	0.42 µM	> 10 µM	–	–	–
COc1ccc(Oc2ccc(S(=O)(=O)C3(C(=O)NO)CCSCC3)cc2)cc1 [Example 146]	–	–	–	3 µM	0.0002 µM	0.0003 µM
CS(=O)(=O)N1CCC(C2CCN(c3ccc(S(=O)(=O)C4(C(=O)NO)CCOCC4)cc3)CC2)CC1 [Example 793]	> 10 µM	0.004 µM	0.0235 µM	–	–	–
O=C(Nc1ccccc1OC(F)(F)F)C1CCN(c2ccc(S(=O)(=O)C3(C(=O)NO)CCOCC3)cc2)CC1 [Example 63]	> 10 µM	0.02 µM	2.9 µM	–	–	–
O=C(NO)C1(S(=O)(=O)c2ccc(Oc3ccc(OC(F)(F)F)cc3)cc2)CCSCC1 [Example 147]	7.7 µM	0.0004 µM	0.0002 µM	–	–	–
COc1ccc(NC(=O)C2CCN(c3ccc(S(=O)(=O)C4(C(=O)NO)CCOCC4)cc3)CC2)cc1 [Example 76]	> 10 µM	0.009 µM	0.25 µM	–	–	–
O=C(Nc1ccc(Cl)c(Cl)c1)N1CCC(C(=O)NO)(S(=O)(=O)c2ccc(Oc3ccc(OC(F)(F)F)cc3)cc2)CC1 [Example 359]	> 10 µM	0.0349 µM	0.0122 µM	–	–	–
Cc1cc(C(=O)C2CCN(c3ccc(S(=O)(=O)C4(C(=O)NO)CCOCC4)cc3)CC2)ccc1Cl [Example 858]	> 10 µM	0.0037 µM	0.6 µM	–	–	–
COc1ccccc1C1CCN(c2ccc(S(=O)(=O)C3(C(=O)NO)CCSCC3)cc2)CC1 [Example 153]	–	–	–	> 10 µM	0.05 µM	5 µM
COCCN1CCN(CC(=O)N2CCC(C(=O)NO)(S(=O)(=O)c3ccc(N4CCC(C(=O)N5CC(C)CC(C)C5)CC4)cc3)CC2)CC1 (stereo not drawn) [Example 307]	> 10 µM	0.04 µM	> 10 µM	–	–	–
Cc1cccc(C(=O)C2CCN(c3ccc(S(=O)(=O)C4(C(=O)NO)CCOCC4)cc3)CC2)c1 [Example 653]	> 10 µM	0.0008 µM	0.16 µM	–	–	–
O=C(NO)C1(S(=O)(=O)c2ccc(Oc3ccc(OC(F)(F)F)cc3)cc2)CCN(c2ccccn2)CC1 [Example 352]	> 10 µM	0.0014 µM	0.0003 µM	–	–	–

More lines, main results first:

IC50 (MMP-1; [1])	IC50 (MMP-13; [2])	IC50 (MMP-2; [3])	Structure (SMILES)	IC50 (MMP-1)	IC50 (MMP-13)	IC50 (MMP-2)
> 10 µM	0.0022 µM	0.0326 µM	O=C(NO)C1(S(=O)(=O)c2ccc(N3CCC(Oc4ccccc4)CC3)cc2)CCOCC1 [Example 185, N-Hydroxy-4[[[4-(4-phenoxy)piperidyl]phenyl]sulfonyl]-1-tetrahydropyrancarboxamide]	–	–	–
> 10 µM	5.4 µM	4 µM	CC1CCCCN1c1ccc(S(=O)(=O)C2(C(=O)NO)CCOCC2)cc1 (stereo not drawn) [Example 486]	–	–	–
> 10 µM	0.027 µM	0.48 µM	CC1CN(c2ccc(S(=O)(=O)C3(C(=O)NO)CCOCC3)cc2)CCC1OCc1ccccc1 (stereo not drawn) [Example 581]	–	–	–
> 10 µM	0.014 µM	0.063 µM	O=C(NO)C1(S(=O)(=O)c2ccc(N3CCC(CCOCc4ccc(Cl)c(Cl)c4)CC3)cc2)CCOCC1 [Example 502]	–	–	–
> 10 µM	0.008 µM	0.0307 µM	O=C(NO)C1(S(=O)(=O)c2ccc(N3CCC(OCc4ccc(COc5ccccc5)cc4)CC3)cc2)CCOCC1 [Example 613]	–	–	–
> 10 µM	0.0128 µM	0.05 µM	Nc1ccc(OC2CCN(c3ccc(S(=O)(=O)C4(C(=O)NO)CCOCC4)cc3)CC2)cc1 [Example 553]	–	–	–
> 10 µM	0.0288 µM	0.0217 µM	O=C(CS(=O)(=O)c1ccc(Oc2ccncc2)cc1)NO [Example 227]	–	–	–
> 10 µM	0.0009 µM	0.0193 µM	O=C(NO)C1(S(=O)(=O)c2ccc(N3CCC(CCOCc4ccccc4)CC3)cc2)CCOCC1 [Example 499]	–	–	–
> 10 µM	7.7 µM	> 10 µM	O=C(NO)C1(S(=O)(=O)c2ccc(N3CCCCC3CCOCc3cccc(C(F)(F)F)c3)cc2)CCOCC1 (stereo not drawn) [Example 512]	–	–	–
> 10 µM	0.007 µM	0.0288 µM	CC(C)CC(=O)C1CCN(c2ccc(S(=O)(=O)C3(C(=O)NO)CCOCC3)cc2)CC1 [Example 756]	–	–	–
> 10 µM	0.01 µM	0.15 µM	O=C(NO)C1(S(=O)(=O)c2ccc(N3CC[C@@H](OCc4cccc(C(F)(F)F)c4)C3)cc2)CCOCC1 [Example 532]	–	–	–
> 10 µM	0.27 µM	0.29 µM	O=C(NO)C1(S(=O)(=O)c2ccc(Oc3ccncc3)cc2)CCSCC1 [Example 151]	–	–	–
> 10 µM	0.0017 µM	0.0008 µM	O=C(CCCCN1CCNCC1)N1CCC(C(=O)NO)(S(=O)(=O)c2ccc(Oc3ccc(C(F)(F)F)cc3)cc2)CC1 [Example 343]	–	–	–
> 10 µM	0.0107 µM	0.11 µM	O=C(NO)C1(S(=O)(=O)c2ccc(N3CCC(OCc4cccc(F)c4)CC3)cc2)CCOCC1 [Example 575]	–	–	–
> 10 µM	0.0011 µM	0.0106 µM	CCCCSC1CCN(c2ccc(S(=O)(=O)C3(C(=O)NO)CCOCC3)cc2)CC1 [Example 596]	–	–	–
> 10 µM	0.0454 µM	1.3 µM	O=C(Nc1ccc(Oc2ccccc2)cc1)OC1CCN(c2ccc(S(=O)(=O)C3(C(=O)NO)CCOCC3)cc2)CC1 [Example 519]	–	–	–
> 10 µM	0.77 µM	1.9 µM	O=C(NO)C1(S(=O)(=O)c2ccc(N3CCN(C4CCCCC4)CC3)cc2)CCOCC1 [Example 489]	–	–	–
> 10 µM	0.00035 µM	0.0004 µM	O=C(CN1CCNCC1)N1CCC(C(=O)NO)(S(=O)(=O)c2ccc(Oc3ccc(C(F)(F)F)cc3)cc2)CC1 [Example 328]	–	–	–
> 10 µM	0.009 µM	0.6 µM	CC(C)CCOCc1ccc(COC2CCN(c3ccc(S(=O)(=O)C4(C(=O)NO)CCOCC4)cc3)CC2)cc1 [Example 600]	–	–	–
